Data taken from patent publication US4435591A, “Compound with analgesic, antiinflammatory and antipyretic activity, and pharmaceutical compositions therefrom” (Ausonia Farmaceutici s.r.l., priority 1982, dated 1984).

Columns and labels:
[1] = system: subplantar edema caused by carrageenan in rats; assay: Edema caused by carrageenan in rats (Winter et al); type: in vivo; details: oral, AFP 802 187 mg/Kg, ibuprofen 100 mg/Kg
Protocol: The anti-inflammatory activity has been investigated by a series of tests using edema caused by carrageenan and kaolin pleuritis caused by carrageenan and arthritis caused by an adjuvant.
The plyethysmographic observations of the edema have been carried out every hour for a period of 7 hours after the induction of the edema.

[2] = system: Pleuritis caused by carrageenan in rats; assay: Pleuritis caused by carrageenan in rats (Vinegar et al); type: in vivo; details: for Number of leucocytes × 1,000 / Number of leucocytes, % inhibition with respect to the controls: 100 mg/Kg oral
[3] = system: Arthritis caused by the adjuvant of Freund in rats; assay: Arthritis caused by the adjuvant in rats (Winter and Nuss); type: in vivo; details: 100 mg/Kg/die oral
Description: For the evaluation for the efficiency of the substance the following parameters have been considered: diameter of articulations, volume of the hind paws, hematological and hematochemical examination, weight of the suprarenal glands and thymus.

[4] = system: Writhing caused by phenylquinone in mice; assay: Writhing caused by phenylquinone in mice (Siegmung et al); type: in vivo
Description: The analgesic activity of AFP 802 has been studied by means of the writhing test with phenylquinone in mice and by means of the test of Randall and Selitto in rats.

[5] = system: Test of Randall and Selitto, in rats; assay: Test of Randall and Selitto in rats; type: in vivo; details: 100 mg/Kg oral
Protocol: The analgesic activity of AFP 802 has been studied by means of the writhing test with phenylquinone in mice and by means of the test of Randall and Selitto in rats. Test of Randall and Selitto in rats. This test was carried out according to the method of L. Randall and J. Selitto reported in Arch. Int. Pharmacodyn., 1957 III, 409. […] The variations of pressure tolerated without variation in pain have been determined each hour, for 5 consecutive hours and the results are reported in Table 10.

[6] = system: Hyperthermia caused by yeast; assay: Antipyretic activity, hyperthermia caused by yeast in rats (Boissier and Simon); type: in vivo
Description: The experiment has been carried out in rats in which the body temperature has been increased by means of yeast by the method according to J. R. Boissier and P. Simon (Therapie, 1962, 17, 1225). […] It is, however, necessary to keep in mind the difference in molecular weight between the two substances under examination.

[7] = system: Edema caused by kaolin in rats; assay: Edema caused by kaolin in rats (Coulon et al); details: oral every 24 hours, 5 consecutive days, dose AFP 802 115, ibuprofen 60

CC(C)Cc1ccc(C(C)C(=O)O)cc1 (centres unmarked) [Ibuprofen, ibuprofen, reference compound]
% inhibition vs control ([1]; area): 65.0%
Area Absolute Value [1]: 102.8
Number of leucocytes × 1,000 ([2]; 5 hours): 4,499 × 1,000
Number of leucocytes, % inhibition with respect to the controls ([2]; 5 hours): 73.60%
effect in pleuritis (in words) ([2]; 24 hours after the administration): practically inactive
Number of leucocytes × 1,000 ([2]; 24 hours): 18,470 × 1,000
Number of leucocytes, % inhibition with respect to the controls ([2]; 24 hours): 0.92%
ALBUMIN (%) [3]: 68.0 ± 2.0%
GLOBULIN (%) α1 [3]: 8.8 ± 1.07%
GLOBULIN (%) α2 [3]: 5.5 ± 0.34%
GLOBULIN (%) β1 [3]: 13.9 ± 0.45%
GLOBULIN (%) β2 [3]: 5.9 ± 0.43%
GLOBULIN (%) γ [3]: 1.9 ± 0.13%
Hematocrit [3]: 45.4 ± 1.04
Leucocytes [3]: 7,946 ± 380.5 × mm^3
Red Cells [3]: 5,265.300 ± 1.003 × mm^3
VES [3]: 1.7 ± 0.9
Σ Diameter D + S, Area ([3]; both paws, area under the curve of the increases): 2,616.2
Σ Diameter D + S, % inhibition ([3]; both paws): 70.92%
Suprarenal ([3]; weight): 65.6 ± 3.4 mg
Thymus ([3]; weight): 375.0 ± 24.3 mg
% inhibition with respect to the control ([4]; 100 mg/Kg oral): 78.6%
No. of Contorsions ([4]; 100 mg/Kg oral): 4.5
% inhibition with respect to the control ([4]; 200 mg/Kg oral): 86.7%
No. of Contorsions ([4]; 200 mg/Kg oral): 2.8
% INHIBITION WITH RESPECT TO THE CONTROL, I ([5]; area, inflamed paw): 45.41%
% INHIBITION WITH RESPECT TO THE CONTROL, NI ([5]; area, not inflamed paw): 65.35%
AREA ABSOLUTE VALUE, I ([5]; inflamed paw, area of the increase of the pressure tolerated): -58.6 ± 25.25
AREA ABSOLUTE VALUE, NI ([5]; not inflamed paw, area of the increase of the pressure tolerated): -39.95 ± 33.48
% inhibition with respect to control ([6]; 100 mg/Kg oral): 121.24%
Rectal temperature ([6]; 1 hour after treatment, 100 mg/Kg oral): 37.71 °C
Rectal temperature ([6]; 2 hours after treatment, 100 mg/Kg oral): 37.43 °C
Rectal temperature ([6]; 3 hours after treatment, 100 mg/Kg oral): 37.36 °C
Rectal temperature ([6]; 4 hours after treatment, 100 mg/Kg oral): 36.87 °C
Rectal temperature ([6]; 5 hours after treatment, 100 mg/Kg oral): 37.12 °C
Rectal temperature ([6]; Basal, 100 mg/Kg oral group): 38.34 °C
% inhibition with respect to the controls ([7]; area): 38.24%
Area (area under the curve of the increase of the diameter of the articulations) [7]: 10799.5 mm^2
